From a compilation of properties of binary mixtures (doi:10.1016/j.fluid.2020.112621)

Assay: xn = mol fraction of the nth substance listed
Details: 101 kPa

CCCC(=O)[O-].CC[NH+](CC)CCO + CCCC[n+]1ccn(C)c1.COP(=O)([O-])OC
viscosity [mPa·s]
Details	x1 = 0.1023	x1 = 0.1989	x1 = 0.3026	x1 = 0.3985	x1 = 0.498	x1 = 0.6001	x1 = 0.6613	x1 = 0.8006	x1 = 0.8788	x1 = 1
278.15 K	2058	1152.2	671	445	322.4	255.2	231	–	191	–
283.15 K	1309.9	764	459	311.5	228.5	–	165.4	140.9	136.5	–
288.15 K	–	522	322.9	223.4	165.9	133.2	–	103.2	99.6	96.9
293.15 K	587	367	233	–	–	–	90.5	77.1	–	71.6
298.15 K	411	–	172.1	122.9	93.3	75.8	69	58.8	56.4	54
303.15 K	294.9	–	129.8	94	72	–	53.58	45.58	43.6	41.42
308.15 K	216.6	146.7	99.8	–	56.55	46.34	42.29	35.94	34.28	32.34
313.15 K	162.7	112.5	–	57.98	–	37.1	–	28.77	27.36	25.64
318.15 K	–	87.9	61.99	46.61	36.5	–	27.53	–	22.14	20.63
323.15 K	96.9	–	49.98	37.99	29.93	24.77	–	19.2	18.14	16.82
328.15 K	76.7	56.15	40.85	31.37	24.84	–	18.87	15.97	15.04	13.87
333.15 K	61.58	45.81	33.8	26.18	20.85	17.35	15.88	13.42	12.6	11.56
338.15 K	50.11	37.83	28.27	22.09	17.68	14.74	–	–	10.66	–
343.15 K	41.29	–	23.89	–	15.13	–	11.56	9.74	9.09	8.27
348.15 K	34.41	26.65	20.38	16.18	–	10.92	9.99	8.41	7.82	7.08
353.15 K	28.99	22.7	–	14.02	11.35	9.51	8.69	–	–	–
358.15 K	24.65	19.51	15.22	–	9.95	8.33	–	6.39	5.92	–
363.15 K	21.15	16.9	13.3	10.76	8.77	7.36	6.72	5.63	5.2	4.65
368.15 K	18.3	14.76	–	9.52	7.78	6.53	5.97	4.99	4.6	–
373.15 K	15.96	12.97	10.37	8.47	6.95	5.84	5.33	4.45	4.08	3.61

CCCCC(=O)[O-].CC[NH+](CC)CCO + CCCC[n+]1ccn(C)c1.COP(=O)([O-])OC
viscosity [mPa·s]
Details	x1 = 0.1018	x1 = 0.1952	x1 = 0.3029	x1 = 0.4003	x1 = 0.4973	x1 = 0.5989	x1 = 0.6984	x1 = 0.7978	x1 = 0.8868	x1 = 1
278.15 K	2088	1185.7	676	440	318.2	250.8	–	190.6	171.4	156.6
283.15 K	1327.5	786	464	309	–	180.3	156.2	137.6	123.9	113.1
288.15 K	–	536	327.1	222.5	165.5	132.6	115	101.5	91.4	83.2
293.15 K	–	376	236.3	163.8	123.3	99.4	86.4	76.3	68.8	62.4
298.15 K	416	–	174.8	123.2	93.8	–	66.1	–	52.75	47.75
303.15 K	298.4	–	–	94.6	72.7	59.21	51.52	45.65	41.15	–
308.15 K	219.3	–	101.6	73.8	57.24	–	40.78	36.17	32.59	29.31
313.15 K	164.7	115.4	–	–	45.77	–	32.76	29.07	–	23.48
318.15 K	126	–	63.2	–	37.12	–	–	23.66	21.33	19.07
323.15 K	98.1	71.4	50.96	38.46	30.5	25.23	21.99	–	17.59	15.68
328.15 K	77.7	57.48	41.66	31.79	–	–	–	16.26	14.66	13.03
333.15 K	–	46.87	–	–	21.3	17.73	15.45	13.7	–	–
338.15 K	50.75	–	28.83	22.42	–	–	13.14	11.64	10.49	9.27
343.15 K	41.81	32.29	24.35	–	–	12.94	–	9.98	8.99	7.91
348.15 K	34.84	27.23	20.77	16.43	13.36	–	9.74	8.63	7.76	6.81
353.15 K	29.34	23.18	17.87	14.23	11.63	–	8.48	7.51	6.75	5.9
358.15 K	24.95	19.9	15.5	12.43	10.19	8.56	7.44	6.58	–	–
363.15 K	–	17.23	13.54	10.92	8.99	7.56	–	5.81	5.2	4.52
368.15 K	18.52	15.03	11.92	9.66	7.98	6.72	5.83	5.15	4.61	3.99
373.15 K	16.15	13.21	10.55	–	7.12	6	5.2	4.59	4.1	–
